From patent publication US20090270350A1, “Pyridinone Pyrazole Urea and Pyrimidinone Pyrazole Urea Derivatives” (PFIZER INC., priority 2006, published 2009)

Molecular target: p38α (Homo sapiens, UniProt Q16539)
Assay: p38α/MK2 cascade assay
Type: biochemical
Conditions: Table 1; inhibitors preincubated with p38α for 40 minutes; phosphorylation of Hsp27 peptide by MK-2, Caliper LabChip 3000; read-out: p38a/MK2 Cascade 40 min Pre-Incuabtion (% Inhibition): IC50
Experimental: The ability of compounds to inhibit activated p38α was determined in a p38α/MK-2 cascade assay format. The kinase activity of p38α is determined by its ability to phosphorylate/activate nonactive MK2 (54-400). Activation of MK-2 by p38α is measured by following the phosphorylation of a MK-2 specific peptide, Hsp27 peptide (FITC-KKKALSRQLSVAA). The phosphorylation of the Hsp27 peptide was quantified using the Caliper LabChip 3000. The kinase reactions were carried out in 20 mM HEPES pH 7.5, 10 mM MgCl2, 0.0005% Tween-20, 0.01% BSA, 1 mM DTT, and 2% DMSO. The inhibitors were varied between 1000-0.05 nM, while the Hsp27 peptide substrate, MgATP, and nonactive MK-2 (54-400) were held constant at 0.5 µM, 5 µM, and 1 nM, respectively. Inhibitors were preincubated with p38α for 40 minutes prior to initiating the reaction with peptide, MgATP, and MK-2. The kinase reactions were quenched after 60 minutes by the addition of stop buffer (180 mM HEPES, 30 mM EDTA, and 0.2% Coating Reagent-3).
The above protocol assay was used to determine the IC50 values for some of the compounds in the above Examples.
IC50 values were determined for the compounds listed in Table 2, using the same p38α/MK2 cascade assay used to determine the IC50 values for the compounds in Table 1. The compounds of Table 2 were prepared using methods similar to those listed in the Examples for compounds of Table 1.

Sequence of p38α (Q16539 whole entry): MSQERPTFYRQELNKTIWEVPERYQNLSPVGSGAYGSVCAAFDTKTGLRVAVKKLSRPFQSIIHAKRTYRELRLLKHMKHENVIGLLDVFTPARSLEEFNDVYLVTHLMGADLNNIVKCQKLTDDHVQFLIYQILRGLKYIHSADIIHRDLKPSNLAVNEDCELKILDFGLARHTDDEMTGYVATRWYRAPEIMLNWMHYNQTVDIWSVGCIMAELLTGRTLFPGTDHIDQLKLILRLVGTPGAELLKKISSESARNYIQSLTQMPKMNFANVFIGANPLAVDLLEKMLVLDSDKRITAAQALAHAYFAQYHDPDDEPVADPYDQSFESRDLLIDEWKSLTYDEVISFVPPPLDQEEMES

IC50 | SMILES
266 nM | COc1cccc(Cn2c(C)cc(OCc3ccc(F)cc3CNC(=O)Nc3cc(C(C)(C)C)nn3-c3cccc(OCCOC4CCCCO4)c3)cc2=O)c1 (stereo not drawn) [Example 34, 1-(3-tert-butyl-1-{3-[2-(tetrahydro-2H-pyran-2-yloxy)ethoxy]phenyl}-1H-pyrazol-5-yl)-3-[5-fluoro-2-({[1-(3-methoxybenzyl)-6-methyl-2-oxo-1,2-dihydropyridin-4-yl]oxy}methyl)benzyl]urea]
3.93 nM | Cc1ccc(C(=O)NCCO)cc1-n1c(C)cc(OCc2ccc(F)cc2CNC(=O)Nc2cc(C(C)(C)C)nn2-c2cccc(Cl)c2)c(Cl)c1=O [Example 195, 3-{4-[(2-{[({[3-tert-butyl-1-(3-chlorophenyl)-1H-pyrazol-5-yl]amino}carbonyl)amino]methyl}-4-fluorobenzyl)oxy]-3-chloro-6-methyl-2-oxopyridin-1(2H)-yl}-N-(2-hydroxyethyl)-4-methylbenzamide]
5.8 nM | COc1cccc(Cn2c(C)cc(OCc3ccccc3CNC(=O)Nc3cc(C(C)(C)C)nn3-c3ccc(O)cc3)c(Cl)c2=O)c1 [Example 51, 1-[3-tert-butyl-1-(4-hydroxyphenyl)-1H-pyrazol-5-yl]-3-[2-({[3-chloro-1-(3-methoxybenzyl)-6-methyl-2-oxo-1,2-dihydropyridin-4-yl]oxy}methyl)benzyl]urea]
4.6 nM | COc1ccc(Cn2c(C)cc(OCc3ccccc3CNC(=O)Nc3cc(C(C)(C)C)nn3-c3ccc(O)c(Cl)c3)c(Cl)c2=O)cc1 [Example 58, 1-[3-tert-butyl-1-(3-chloro-4-hydroxyphenyl)-1H-pyrazol-5-yl]-3-[2-({[3-chloro-1-(4-methoxybenzyl)-6-methyl-2-oxo-1,2-dihydropyridin-4-yl]oxy}methyl)benzyl]urea]
3.31 nM | COC(=O)c1ccc(C)c(-n2c(C)cc(OCc3ccc(F)cc3CNC(=O)Nc3cc(C(C)(C)C)nn3-c3ccc(C)cc3)c(Cl)c2=O)c1 [Example 181, Methyl 3-{4-[(2-{[({[3-tert-butyl-1-(4-methylphenyl)-1H-pyrazol-5-yl]amino}carbonyl)amino]methyl}-4-fluorobenzyl)oxy]-3-chloro-6-methyl-2-oxopyridin-1(2H)-yl}-4-methylbenzoate]
8.19 nM | Cc1cc(OCc2ccccc2CNC(=O)Nc2cc(C(C)(C)C)nn2-c2ccc(F)cc2F)c(Br)c(=O)n1Cc1ccccc1 [Example 105, 1-(2-{[(1-benzyl-3-bromo-6-methyl-2-oxo-1,2-dihydropyridin-4-yl)oxy]methyl}benzyl)-3-[3-tert-butyl-1-(2,4-difluorophenyl)-1H-pyrazol-5-yl]urea]

Same assay, conditions: Table 2; same p38α/MK2 cascade assay; 40 minutes preincubation; read-out: p38a/MK2 Cascade 40 min Pre-Incuabtion (% Inhibition): IC50

IC50 | SMILES
9.6 nM | COc1ccc(Cn2c(C)cc(OCc3ccccc3CNC(=O)Nc3cc(C(C)(C)C)nn3-c3ccc(O)c(Cl)c3)c(C)c2=O)cc1C#N [Example 249, 1-[3-tert-butyl-1-(3-chloro-4-hydroxyphenyl)-1H-pyrazol-5-yl]-3-[2-({[1-(3-cyano-4-methoxybenzyl)-3,6-dimethyl-2-oxo-1,2-dihydropyridin-4-yl]oxy}methyl)benzyl]urea]
7.5 nM | CNC(=O)c1ccc(C)c(-n2c(C)cc(OCc3ccc(F)cc3CNC(=O)Nc3cc(C(C)(C)C)nn3-c3ccc(O)c(Cl)c3)c(Cl)c2=O)c1 [Example 236, 3-{4-[(2-{[({[3-tert-butyl-1-(3-chloro-4-hydroxyphenyl)-1H-pyrazol-5-yl]amino}carbonyl)amino]methyl}-4-fluorobenzyl)-oxy]-3-chloro-6-methyl-2-oxopyridin-1(2H)-yl}-N,4-dimethyl-benzamide]
2.6 nM | CNC(=O)c1ccc(C)c(-n2c(C)cc(OCc3ccccc3CNC(=O)Nc3cc(C(C)(C)C)nn3-c3cccc(OCCO)c3)c(Cl)c2=O)c1 [Example 211, 3-[4-{[2-({[({3-tert-butyl-1-[3-(2-hydroxyethoxy)phenyl]-1H-pyrazol-5-yl}amino)carbonyl]amino}methyl)benzyl]oxy}-3-chloro-6-methyl-2-oxopyridin-1(2H)-yl]-N,4-dimethylbenzamide]
